One assay relates to MX1. Kind of assay: Induction of apoptosis in human MX1 cells assessed as downregulation of Bcl-2 by Western blotting analysis. The class given is functional, cell-based. The following applies: dose 0.5-2 µM. Background: A western blot detects proteins with antibodies after separation by electrophoresis.
Assay [1] has as its system MDA-MB-231. Kind of assay: Inhibition of PI3K/Akt signaling in human MDA-MB-231 cells assessed as decrease in total Akt expression level incubated for 24 hrs by Western blotting analysis. The class given is cell-based.
Assay [2] deals with MDA-MB-231. Kind of assay: Antitumor activity against human MDA-MB-231 cells xenografted in ig dosed BALBc mouse assessed as inhibition of tumor growth administered every 3 days for 21 days. Format: functional, organism-based. The following applies: time 21.0 day.
Assay [3] concerns MDA-MB-231. Put plainly: Induction of apoptosis in human MDA-MB-231 cells assessed as early apoptotic cells measured at 2 uM after 48 hrs by FITC-Annexin-V and propidium iodide based flow cytometric analysis (reference value: 2.71%). Format: functional. (In flow cytometry, cells or beads pass a laser one at a time.)
For assay [4], the system named is MDA-MB-231. Kind of assay: Antiproliferative activity against human MDA-MB-231 cells assessed as reduction in cell viability by measuring release of nitrite at 100 uM after 180 mins by Griess reagent analysis. The following applies: 3 h. The class given is functional. For orientation: Nitrite, measured by Griess reagent, commonly stands in for NO production.
For assay [5], the system named is MDA-MB-231. Kind of assay: Antitumor activity against human MDA-MB-231 cells xenografted in BALBC mouse assessed as reduction of tumor volume at 150 mg/kg, IG administered every 3 days for 21 days relative to control. The class given is functional. Also on record: scale not given: the % may be the effect or the level left. The following applies: time 21 day.

Active and inactive are the calls of the source. The calls are words filed in the database; no cut-off is given here.

On to `CC1(C)C=Cc2c(c(/C=C/C(=O)NCCOc3no[n+]([O-])c3S(=O)(=O)c3ccccc3)cc3c2[nH]c2ccc(C(C)(C)C)cc23)O1`, for which the Activity result in the assay with MX1 was “Dose-Dependent Effect”; with MDA-MB-231 [2], “Dose-Dependent Effect”; in the assay with MDA-MB-231 [3], 10.8%; in the assay on MDA-MB-231 [5] it was 40%. Further, in the assay on MDA-MB-231 [1], the inhibition entry is “inactive”. The Nitrite release with MDA-MB-231 [4] turned out to be 54.7 µM.
